Like-named read-outs stand apart in the source and are kept apart here.
Tests used:
[1] = test system: HCV replicon; assay: microbe, parasite or virus in culture; assay type: cell-based; details: Hepatitis C virus, 48 h

Row | Compound | IC50 ([1]; read-out: Replicon IC5Os μM) [µM] | melting point [°C] | IC50 ([1]; read-out: Replicon IC5Os) [µM]
1 | CCn1c(C#Cc2ccccc2Cl)c(C#N)c2ccc(OC)cc21 [Compound 134] | 0.5 to 2 | 155 to 157 | 
2 | CCn1c(C#Cc2ccc(NC(=O)COC)cc2)c(C#N)c2ccc(OC)cc21 [Compound 139] | 0.5 to 2 | 191 to 195 | 
3 | CCn1c(C#Cc2cccc(C)c2)c(C#N)c2ccc(OC)cc21 [Compound 144] | 0.5 to 2 | 97 to 100 | 
4 | CCn1c(C#Cc2ccc(C(C)(C)C)cc2)c(C#N)c2ccc(OC)cc21 [Compound 145] | 0.5 to 2 | 110 to 113 | 
5 | CCn1c(C#Cc2ccc(NC(=O)C3CCC3)cc2)c(C#N)c2ccc(OC)cc21 [Compound 153] | 0.5 to 2 | 225 to 228 | 
6 | CCn1c(C#Cc2ccc(CC#N)cc2)c(C#N)c2ccc(OC)cc21 [Compound 161] | 0.5 to 2 | 174 to 176 | 
7 | CCn1c(C#Cc2ccc(O)cc2)c(C#N)c2ccc(OC)cc21 [Compound 172] | 0.5 to 2 | 221 to 223 | 
8 | CCn1c(C#Cc2cccc(N)c2)c(C#N)c2ccc(OC)cc21 [Compound 173] | 0.5 to 2 | 150 to 153 | 
9 | CCn1c(C#Cc2ccc3c(c2)OCCO3)c(C#N)c2ccc(OC)cc21 [Compound 175] | 0.5 to 2 | 132 to 135 | 
10 | CCn1c(C#Cc2ccc(C(F)(F)F)cc2)c(C#N)c2ccc(O)cc21 [Compound 185] | 0.5 to 2 | 157 to 160 | 
11 | CCn1c(C#Cc2ccccc2)c(C#N)c2ccc(O)cc21 [Compound 188] | 0.5 to 2 | 209 to 212 | 
12 | CCn1c(C#Cc2cccc(O)c2)c(C#N)c2ccc(C(F)(F)F)cc21 [Compound 196] | 0.5 to 2 | 187 to 189 | 
13 | CCn1c(C#Cc2ccc(N)cc2)c(C#N)c2ccc(C(F)(F)F)cc21 [Compound 200] | 0.5 to 2 | 187 to 189 | 
14 | CCn1c(C#Cc2ccc(N(C)C)cc2)c(C#N)c2ccc(C(F)(F)F)cc21 [Compound 201] | 0.5 to 2 | 147 to 150 | 
15 | CCn1c(C#Cc2cccc(NC(C)=O)c2)c(C#N)c2ccc(OC)cc21 [Compound 205] | 0.5 to 2 | 181 to 184 | 
16 | CCC(=O)Nc1cccc(C#Cc2c(C#N)c3ccc(OC)cc3n2CC)c1 [Compound 206] | 0.5 to 2 | 187 to 191 | 
17 | CCn1c(C#Cc2cccc(NC(=O)C(C)C)c2)c(C#N)c2ccc(OC)cc21 [Compound 207] | 0.5 to 2 | 179 to 183 | 
18 | CCn1c(C#Cc2cccc(NC(=O)C3CC3)c2)c(C#N)c2ccc(OC)cc21 [Compound 211] | 0.5 to 2 | 186 to 191 | 
19 | CCn1c(C#Cc2cccc(NC(=O)C3CCC3)c2)c(C#N)c2ccc(OC)cc21 [Compound 213] | 0.5 to 2 | 165 to 168 | 
20 | CCn1c(NC(=O)C2CC2)c(C#N)c2ccc(OC)cc21 [Compound 216] | 0.5 to 2 | 261 | 
21 | CCn1c(NC(=O)OCC(C)C)c(C#N)c2ccc(OC)cc21 [Compound 217] | < 0.5 | 272 to 273 | 

Row | Compound | IC50 ([1]; read-out: Replicon IC5Os μM) [µM] | melting point [°C] | IC50 ([1]; read-out: Replicon IC5Os) [µM]
22 | CCn1c(C#Cc2cccc(NC=O)c2)c(C#N)c2ccc(OC)cc21 [Compound 218] | 0.5 to 2 | 174 to 177 | 
23 | CCn1c(C#Cc2cccc(NC(=O)COC)c2)c(C#N)c2ccc(OC)cc21 [Compound 219] | 0.5 to 2 | 145 to 149 | 
24 | CCn1c(C#Cc2cccc(NC(=O)NCCCl)c2)c(C#N)c2ccc(OC)cc21 [Compound 221] | 0.5 to 2 | 195 to 200 | 
25 | COc1ccc2c(C#N)c(C#Cc3ccc(C(C)(C)C)cc3)[nH]c2c1 [Compound 233] | 0.5 to 2 | 232 to 234 | 
26 | CCn1c(-c2ccc(NS(C)(=O)=O)cc2)c(C#N)c2cc(OC)ccc21 [Compound 243] | < 0.5 | 194 to 198 | 
27 | CCCS(=O)(=O)Nc1ccc(-c2c(C#N)c3ccc(OC)cc3n2CC)cc1 [Compound 251] | 0.5 to 2 | 186 to 187 | 
28 | CCn1c(-c2ccc(NS(=O)(=O)CCCCl)cc2)c(C#N)c2ccc(OC)cc21 [Compound 252] | 0.5 to 2 | 176 to 177 | 
29 | CCn1c(-c2ccc(OCCNS(=O)(=O)CC)cc2)c(C#N)c2ccc(OC)cc21 [Compound 269] | 0.5 to 2 | 153 to 158 | 
30 | CCn1c(-c2cccc(S(=O)(=O)NC)c2)c(C#N)c2ccc(OC)cc21 [Compound 331] |  | 160 to 165 | 0.5 to 2
31 | CCn1c(-c2ccc3c(c2)oc(=O)n3C)c(C#N)c2ccc(OC)cc21 [Compound 341] |  | 227 to 230 | 0.5 to 2
32 | CCS(=O)(=O)Nc1ccc(-c2c(C#N)c3ccc(OC)cc3n2C)cc1 [Compound 345] |  | 191 to 192 | 0.5 to 2
33 | CCCn1c(-c2ccc(NS(C)(=O)=O)cc2)c(C#N)c2ccc(OC)cc21 [Compound 346] |  | 178 to 180 | < 0.5
34 | CCn1c(-c2ccc(NS(=O)(=O)CC)cc2)c(C#N)c2ccc(C(F)(F)F)cc21 [Compound 366] |  | 223 to 225 | < 0.5
35 | CCCS(=O)(=O)Nc1ccc(-c2c(C#N)c3ccc(C(F)(F)F)cc3n2CC)cc1 [Compound 367] |  | 225 to 227 | 0.5 to 2
36 | CCn1c(-c2ccc(NS(=O)(=O)CCCCl)cc2)c(C#N)c2ccc(C(F)(F)F)cc21 [Compound 369] |  | 174 to 177 | 0.5 to 2
37 | CCn1c(-c2ccc(S(N)(=O)=O)cc2)c(C#N)c2cc(Cl)ccc21 [Compound 408] |  | 231 to 235 | 0.5 to 2
38 | CCOc1ccc2c(C#N)c(-c3ccc(NS(C)(=O)=O)cc3)n(C)c2c1 [Compound 413] |  | 184 to 185 | < 0.5
39 | CCOc1ccc2c(C#N)c(-c3ccc(NS(C)(=O)=O)cc3)n(CC)c2c1 [Compound 415] |  | 163 to 165 | < 0.5
40 | CCOc1ccc2c(C#N)c(-c3ccc(NS(=O)(=O)CC)cc3)n(CC)c2c1 [Compound 416] |  | 173 to 175 | < 0.5
41 | CCCn1c(-c2ccc(NS(=O)(=O)CC)cc2)c(C#N)c2ccc(OCC)cc21 [Compound 418] |  | 183 to 184 | < 0.5
42 | CCn1c(-c2ccc(NC(C)=O)cc2)c(C#N)c2ccc(C(F)(F)F)cc21 [Compound 420] |  | 241 to 243 | 0.5 to 2

Row | Compound | IC50 ([1]; read-out: Replicon IC5Os μM) [µM] | melting point [°C] | IC50 ([1]; read-out: Replicon IC5Os) [µM]
43 | CCC(=O)Nc1ccc(-c2c(C#N)c3ccc(C(F)(F)F)cc3n2CC)cc1 [Compound 422] |  | 259 to 261 | 0.5 to 2
44 | CCn1c(-c2ccc(S(=O)(=O)NC)cc2)c(C#N)c2cc(Cl)ccc21 [Compound 430] |  | 180 to 186 | 0.5 to 2
45 | CCn1c(-c2ccc(N/C(C)=C/C#N)cc2)c(C#N)c2ccc(OC)cc21 [Compound 456] |  | 157 to 159 | 0.5 to 2
46 | CCn1c(-c2ccc(S(N)(=O)=O)cc2)c(C#N)c2cc(-c3cccc(OC)c3)ccc21 [Compound 461] |  | 200 to 205 | < 0.5
47 | CCn1c(-c2ccc(S(=O)(=O)NC)cc2)c(C#N)c2cc(-c3cccc(OC)c3)ccc21 [Compound 462] |  | 135 to 140 | < 0.5
48 | CCOc1ccc2c(C#N)c(-c3ccc(NS(=O)(=O)CC)cc3)n(CC(C)C)c2c1 [Compound 470] |  | 178 to 180 | < 0.5
49 | CCOc1ccc2c(C#N)c(-c3ccc(NS(C)(=O)=O)cc3)n(CC(C)C)c2c1 [Compound 471] |  | 154 to 156 | < 0.5
50 | CCOc1ccc2c(C#N)c(-c3ccc(NS(C)(=O)=O)cc3)n(C3CCC3)c2c1 [Compound 472] |  | 215 to 217 | < 0.5
51 | CCOc1ccc2c(C#N)c(-c3ccc(NS(=O)(=O)CC)cc3)n(C3CCC3)c2c1 [Compound 473] |  | 189 to 191 | < 0.5
52 | CCn1c(-c2ccc(NS(C)(=O)=O)cc2)c(C#N)c2ccc(OCCCl)cc21 [Compound 477] |  | 194 to 195 | < 0.5
53 | CCn1c(-c2ccc(NS(C)(=O)=O)cc2)c(C#N)c2ccc(OCCN3CCSCC3)cc21 [Compound 480] |  | 207 to 208 | < 0.5
54 | CCCS(=O)(=O)Nc1ccc(-c2c(C#N)c3ccc(OCCCl)cc3n2CC)cc1 [Compound 495] |  | 126 to 128 | 0.5 to 2
55 | CCn1c(-c2ccc(NS(C)(=O)=O)cc2)c(C#N)c2ccc(OCCN(C)C)cc21 [Compound 498] |  | 192 to 194 | 0.5 to 2
56 | CCn1c(-c2ccc(NS(=O)(=O)CC)cc2)cc2ccc(OC(F)F)cc21 [Compound 516, ethanesulfonic acid [4-(6-difluoromethoxy-1-ethyl-1H-iodo-2-yl)-phenyl]-amide] |  | 155 to 156 | 0.5 to 2
57 | Cn1c(-c2ccc(NS(C)(=O)=O)cc2)c(C#N)c2ccc(OC(F)F)cc21 [Compound 518] |  | 197 to 199 | 0.5 to 2
58 | CCn1c(-c2ccc(NS(=O)(=O)CC)cc2)c(C#N)c2ccc(OC(F)F)cc21 [Compound 520] |  | 175 to 177 | < 0.5
59 | CCCn1c(-c2ccc(NS(C)(=O)=O)cc2)c(C#N)c2ccc(OC(F)F)cc21 [Compound 521] |  | 184 to 186 | < 0.5
60 | CC(C)n1c(-c2ccc(NS(C)(=O)=O)cc2)c(C#N)c2ccc(OC(F)F)cc21 [Compound 523] |  | 190 to 192 | < 0.5
61 | CCn1c(-c2cccc(NS(=O)(=O)NC(C)C)c2)c(C#N)c2ccc(OC)cc21 [Compound 542] |  | 186 to 188 | 0.5 to 2
62 | CCn1c(-c2ccc(N)cc2)c(C#N)c2ccc(OCCF)cc21 [Compound 543] |  | 197 to 200 | 0.5 to 2
63 | CCn1c(-c2ccc(NC(=O)C3CC3)cc2)c(C#N)c2ccc(OCCF)cc21 [Compound 544] |  | 263 to 265 | < 0.5

Reference: patent publication US8013006B2
